{"source": "patent US6346610B1", "about": "“Process for preparing antifungal V-28-3M” (Ajinomoto Co., Ltd., priority 1997, dated 2002)", "key": {"[1]": {"conditions": "background statement, JP-A-63-218686 and JP-A-3-81225; cited from earlier work"}, "animal cells": {"tested_on": "animal cells", "conditions": "background statement, JP-A-63-218686 and JP-A-3-81225; cited from earlier work"}, "[2]": {"test": "antimycotic activity of V-28-3M", "conditions": "V-28-3M obtained by Example 5, compared with V-28-3M described in JP-A-3-81225"}}, "note": "Where two headings read alike, the source gives them in different places.", "data": [{"molecule": "COC(=O)C1C(O)CC2(O)CC(O)CC(O)CC(O)CC(O)CC(=O)CC(O)CC(=O)OC(C(C)CCC(O)CC(=O)c3ccc(N)cc3)C(C)\\C=C/C=C\\C=C\\C=C\\C=C\\C=C\\C=C\\C(OC3OC(C)C(O)C(N)C3O)CC1O2", "note": "(stereo not drawn) [Example V-28-3M, V-28-3M]", "values": [{"measurement": "antimycotic activity", "setting": "[1]", "result": "high"}, {"measurement": "toxicity for animal cells", "setting": "animal cells", "result": "low"}, {"measurement": "antimycotic activity", "setting": "[2]", "result": "the same result was also obtained"}]}]}
